Experimental data: ChEMBL document CHEMBL4371068, “Potent inhibitors of malarial P. Falciparum protein kinase G: Improving the cell activity of a series of imidazopyridines” (Bioorg Med Chem Lett, 2019)

Assay: Apparent permeability of the compound in phosphate buffer saline at 50 to 200 uM after 5 hrs by PAMPA
Format: ADME

Papp at 5 h, up to 200 µM	SMILES
3.2 ×10⁻⁶ cm/s	CN(C)Cc1ccc2c(c1)nc(-c1ccc(F)cc1)n2-c1ccnc(N)n1
18.5 ×10⁻⁶ cm/s	CN(C)Cc1ccc2c(-c3ccnc(N)n3)c(-c3ccc(F)cc3)nn2c1
1 ×10⁻⁶ cm/s	CN(C)CCNc1ccc2nc(-c3ccc(F)cc3)c(-c3ccnc(N)n3)n2n1
12.4 ×10⁻⁶ cm/s	CN1CCC(n2cc(Nc3nccc(-c4c(-c5ccc(F)cc5)nc5ccccn45)n3)cn2)CC1
14.5 ×10⁻⁶ cm/s	Fc1ccc(-c2nc3ccccn3c2-c2ccnc(NC3CCOCC3)n2)cc1
11.8 ×10⁻⁶ cm/s	CN(C)Cc1ccn2c(-c3ccnc(N)n3)c(-c3ccc(F)cc3)nc2n1
5.8 ×10⁻⁶ cm/s	CN(C)Cc1cc2nc(-c3ccc(F)cc3)c(-c3ccnc(N)n3)n2cn1
8.2 ×10⁻⁶ cm/s	CN(C)CCCNc1nccc(-c2c(-c3ccc(F)cc3)nc3ccccn23)n1
